According to patent US20040029965A1, “Formulations for reducing or eliminating toxicity of enviromental hormones containing ursodeoxycholic acid” (priority 2000, published 2004):

Test system: C57B1/6J mice
Experiment: Organ weights (liver, kidneys, testes, epididymides) of mice after a single subcutaneous injection of TCDD
Type: in vivo
Method: Male C57B1/6J mice of 5 weeks old having the average weight of 18-22 g which had been bred in CRJ (Charles River in Japan) were purchased and used in this example as experimental animals. Those mice were acclimated under the constant breeding condition, i.e. the temperature of 24±1° C., the humidity of 60±10% and the light and darkness cycle of 12 hours, for one week and thereafter, utilized in the experiment.
2,3,7,8-tetrachlorodibenzo-p-dioxin (TCDD) dissolved in toluene (purity of 95% or more as a result of gas chromatography analysis), manufactured by Chem. Services Inc. in USA, was volatilized with nitrogen to obtain powder. The obtained powder was dissolved in a mixed solvent containing acetone and corn oil with a volume ratio of 1:6. The resulting solution each containing 110, 27.5 and 6.9 μg/kg of TCDD was subcutaneously injected to mice at a volume of 5 ml per body weight. […] The mice were supplied with the feed from 10 days before (pre-administration) to 60 days after administration of TCDD (post-administration).
Upon completion of the experiment for 60 days, the experimental animals were fasted for 24 hours and anesthetized with ether. Then, they were abdominally incised and blood was gathered from abdominal vena cava. They were sacrificed by the release of blood. Liver, kidneys, testes and epididymides were extracted and all the extracted organs were weighed. Only the testes were separately kept and observed under optical and electron microscopes. For biochemical finding test, serum was separated from blood with a centrifuge and the separated serum was analyzed with an automated blood biochemical analyzer, Dimension (Dupont, USA). Blood was put to another blood gathering bottle and then, analyzed with an automated blood cell analyzer, Celldyn (Abbott, USA).
The results are expressed as Mean±Standard Deviation values. For statistical analysis of the body weight, feed and water uptake, biochemical findings, hematological findings and the weight of organ in an acute toxicity test, verification was performed by one way analysis of variance (ANOVA) in case of equal distribution. In case significance was recognized in ANOVA, the Student's t-test was performed in the levels of p<0.05 and p<0.01.
The organs, i.e. liver, kidneys, testes and epididymides, were weighed and the results are shown in the following.

[1] = TCDD 27.5 μg/kg + UDCA 0.125 wt %
[2] = TCDD 27.5 μg/kg + UDCA 0.25 wt %
[3] = TCDD 27.5 μg/kg + UDCA 0.5 wt %
[4] = TCDD 110.0 μg/kg + UDCA 0.125 wt %
[5] = TCDD 110.0 μg/kg + UDCA 0.25 wt %
[6] = TCDD 110.0 μg/kg + UDCA 0.5 wt %

SMILES: C[C@H](CCC(=O)O)[C@H]1CC[C@H]2[C@@H]3[C@@H](O)C[C@@H]4C[C@H](O)CC[C@]4(C)[C@H]3CC[C@]12C [UDCA, 3α, 7β-dihydroxy-5β-cholanoic acid]
- Left kidney Weight (TCDD 6.9 μg/kg + UDCA 0.5 wt %): 0.121 ± 0.007 g
- Left testis Relative weight (TCDD 6.9 μg/kg + UDCA 0.5 wt %): 0.310 ± 0.050%
- Left testis Weight (TCDD 6.9 μg/kg + UDCA 0.5 wt %): 0.075 ± 0.010 g
- Liver Relative weight (TCDD 6.9 μg/kg + UDCA 0.5 wt %): 4.258 ± 0.327%
- Liver Weight (TCDD 6.9 μg/kg + UDCA 0.5 wt %): 1.028 ± 0.073 g
- Right epididymis Relative weight (TCDD 6.9 μg/kg + UDCA 0.5 wt %): 0.114 ± 0.015%
- Right epididymis Weight (TCDD 6.9 μg/kg + UDCA 0.5 wt %): 0.027 ± 0.004 g
- Right kidney Relative weight (TCDD 6.9 μg/kg + UDCA 0.5 wt %): 0.516 ± 0.043%
- Right kidney Weight (TCDD 6.9 μg/kg + UDCA 0.5 wt %): 0.125 ± 0.009 g
- Right testis Relative weight (TCDD 6.9 μg/kg + UDCA 0.5 wt %): 0.307 ± 0.031%
- Right testis Weight (TCDD 6.9 μg/kg + UDCA 0.5 wt %): 0.074 ± 0.007 g
- Left epididymis Relative weight [1]: 0.112 ± 0.017%
- Left epididymis Weight [1]: 0.027 ± 0.003 g
- Left kidney Relative weight [1]: 0.517 ± 0.056 %
- Left kidney Weight [1]: 0.127 ± 0.012 g
- Left testis Relative weight [1]: 0.284 ± 0.025 %
- Left testis Weight [1]: 0.070 ± 0.005 g
- Liver Relative weight [1]: 4.832 ± 0.327%
- Liver Weight [1]: 1.187 ± 0.086 g
- Right epididymis Relative weight [1]: 0.105 ± 0.015 %
- Right epididymis Weight [1]: 0.026 ± 0.003 g
- Right kidney Relative weight [1]: 0.489 ± 0.055 %
- Right kidney Weight [1]: 0.120 ± 0.013 g
- Right testis Relative weight [1]: 0.285 ± 0.016 %
- Right testis Weight [1]: 0.070 ± 0.003 g
- Left epididymis Relative weight [2]: 0.120 ± 0.018%
- Left epididymis Weight [2]: 0.029 ± 0.003 g
- Left kidney Relative weight [2]: 0.508 ± 0.038 %
- Left kidney Weight [2]: 0.125 ± 0.010 g
- Left testis Relative weight [2]: 0.293 ± 0.032 %
- Left testis Weight [2]: 0.072 ± 0.007 g
- Liver Relative weight [2]: 4.428 ± 0.198%
- Liver Weight [2]: 1.088 ± 0.030 g
- Right epididymis Relative weight [2]: 0.124 ± 0.020%
- Right epididymis Weight [2]: 0.030 ± 0.005 g
- Right kidney Relative weight [2]: 0.508 ± 0.029 %
- Right kidney Weight [2]: 0.125 ± 0.007 g
- Right testis Relative weight [2]: 0.290 ± 0.030 %
- Right testis Weight [2]: 0.071 ± 0.007 g
- Left epididymis Relative weight [3]: 0.115 ± 0.015%
- Left epididymis Weight [3]: 0.025 ± 0.004 g
- Left kidney Relative weight [3]: 0.539 ± 0.040 %
- Left kidney Weight [3]: 0.119 ± 0.011 g
- Left testis Relative weight [3]: 0.304 ± 0.040 %
- Left testis Weight [3]: 0.067 ± 0.011 g
- Liver Relative weight [3]: 4.773 ± 0.250%
- Liver Weight [3]: 1.057 ± 0.069 g
- Right epididymis Relative weight [3]: 0.132 ± 0.041%
- Right epididymis Weight [3]: 0.029 ± 0.011 g
- Right kidney Relative weight [3]: 0.538 ± 0.045 %
- Right kidney Weight [3]: 0.119 ± 0.009 g
- Right testis Relative weight [3]: 0.301 ± 0.030 %
- Right testis Weight [3]: 0.067 ± 0.007 g
- Liver Relative weight [4]: 5.118%
- Liver Weight [4]: 0.8153 g
- Left epididymis Relative weight [5]: 0.122%
- Left epididymis Weight [5]: 0.0195 g
- Left kidney Relative weight [5]: 0.6711%
- Left kidney Weight [5]: 0.1069 g
- Left testis Relative weight [5]: 0.2153%
- Left testis Weight [5]: 0.343 g
- Liver Relative weight [5]: 8.600 ± 3.276%
- Liver Weight [5]: 1.379 ± 0.327 g
- Right epididymis Relative weight [5]: 0.080%
- Right epididymis Weight [5]: 0.0128 g
- Right kidney Relative weight [5]: 0.6045%
- Right kidney Weight [5]: 0.0963 g
- Right testis Relative weight [5]: 0.2279%
- Left epididymis Relative weight [6]: 0.114 ± 0.025%
- Left epididymis Weight [6]: 0.021 ± 0.007 g
- Left kidney Relative weight [6]: 0.704 ± 0.199%
- Left kidney Weight [6]: 0.121 ± 0.022 g
- Left testis Relative weight [6]: 0.316 ± 0.074%
- Left testis Weight [6]: 0.057 ± 0.019 g
- Right epididymis Relative weight [6]: 0.127 ± 0.024%
- Right epididymis Weight [6]: 0.024 ± 0.009 g
- Right kidney Relative weight [6]: 0.659 ± 0.133%
- Right kidney Weight [6]: 0.113 ± 0.010 g
- Right testis Relative weight [6]: 0.314 ± 0.067%
- Right testis Weight [6]: 0.057 ± 0.019 g
